Assay results taken from patent publication US8258159B2, “Inhibitors of the α2β1/GPIa-IIa integrin” (The Trustees Of The University Of Pennsylvania, priority 2005, dated 2012).
Like-named read-outs stand apart in the source and are kept apart here.

Key:
Format in all cases: cell-based
α2β1 integrin = target: T1, α2β1 integrin (Homo sapiens, UniProt P05556+P17301); assay: Platelet adhesion assay (human platelet adhesion to type I collagen)
T1 construct: endogenous in cells; host or cells: gel-filtered human platelets of a single donor
T1 sequence (P17301 30-1181): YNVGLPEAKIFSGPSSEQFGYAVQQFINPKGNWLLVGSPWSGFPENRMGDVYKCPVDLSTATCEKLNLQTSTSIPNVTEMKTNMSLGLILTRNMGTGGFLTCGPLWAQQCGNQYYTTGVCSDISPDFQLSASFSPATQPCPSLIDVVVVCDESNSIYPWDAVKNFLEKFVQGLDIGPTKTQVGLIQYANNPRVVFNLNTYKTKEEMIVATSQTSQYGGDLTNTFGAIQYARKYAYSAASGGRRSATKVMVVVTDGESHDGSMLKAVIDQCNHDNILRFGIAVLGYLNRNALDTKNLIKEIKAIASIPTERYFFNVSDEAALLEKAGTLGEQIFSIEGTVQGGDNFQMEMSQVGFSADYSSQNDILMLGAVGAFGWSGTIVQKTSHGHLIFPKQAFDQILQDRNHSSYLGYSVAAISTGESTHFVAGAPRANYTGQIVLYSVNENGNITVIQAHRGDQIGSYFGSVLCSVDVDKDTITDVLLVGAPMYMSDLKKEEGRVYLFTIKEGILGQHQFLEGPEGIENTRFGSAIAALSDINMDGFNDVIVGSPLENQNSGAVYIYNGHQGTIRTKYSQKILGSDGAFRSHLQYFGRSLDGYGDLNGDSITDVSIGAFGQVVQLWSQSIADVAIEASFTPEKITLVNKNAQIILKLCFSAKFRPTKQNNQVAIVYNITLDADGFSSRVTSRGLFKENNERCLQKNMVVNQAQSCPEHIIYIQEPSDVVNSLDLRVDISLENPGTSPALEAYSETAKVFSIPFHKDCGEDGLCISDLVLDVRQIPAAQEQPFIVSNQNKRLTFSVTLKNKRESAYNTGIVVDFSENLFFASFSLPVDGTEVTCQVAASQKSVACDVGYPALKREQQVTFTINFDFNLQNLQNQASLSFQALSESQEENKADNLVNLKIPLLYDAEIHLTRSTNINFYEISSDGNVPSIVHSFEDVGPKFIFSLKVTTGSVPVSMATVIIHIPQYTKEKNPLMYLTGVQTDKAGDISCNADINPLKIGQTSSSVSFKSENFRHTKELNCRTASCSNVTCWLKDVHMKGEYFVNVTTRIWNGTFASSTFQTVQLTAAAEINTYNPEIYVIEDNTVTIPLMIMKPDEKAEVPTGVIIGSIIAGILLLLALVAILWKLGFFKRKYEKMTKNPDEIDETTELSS
T1 sequence (P05556 21-798): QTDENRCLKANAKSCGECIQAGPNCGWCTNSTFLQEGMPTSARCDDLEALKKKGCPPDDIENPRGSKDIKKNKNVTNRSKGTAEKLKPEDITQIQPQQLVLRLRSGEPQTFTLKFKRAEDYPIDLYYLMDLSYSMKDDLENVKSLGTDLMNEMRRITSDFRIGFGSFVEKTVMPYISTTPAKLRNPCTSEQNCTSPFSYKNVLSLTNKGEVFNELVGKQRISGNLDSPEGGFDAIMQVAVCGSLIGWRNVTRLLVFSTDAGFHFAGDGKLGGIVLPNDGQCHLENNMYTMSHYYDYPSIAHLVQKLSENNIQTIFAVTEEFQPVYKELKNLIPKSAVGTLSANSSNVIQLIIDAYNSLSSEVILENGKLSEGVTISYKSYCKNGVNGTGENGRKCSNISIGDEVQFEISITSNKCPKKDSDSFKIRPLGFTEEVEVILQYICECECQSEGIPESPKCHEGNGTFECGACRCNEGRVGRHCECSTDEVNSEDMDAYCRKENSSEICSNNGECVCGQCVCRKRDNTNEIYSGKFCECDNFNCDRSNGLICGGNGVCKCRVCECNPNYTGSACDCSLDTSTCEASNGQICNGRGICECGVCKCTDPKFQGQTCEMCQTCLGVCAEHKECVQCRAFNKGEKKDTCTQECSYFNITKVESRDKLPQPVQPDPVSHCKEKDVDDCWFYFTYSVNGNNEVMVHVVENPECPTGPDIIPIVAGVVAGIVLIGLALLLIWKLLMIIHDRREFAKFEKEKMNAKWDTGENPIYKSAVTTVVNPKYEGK
Protocol: The inhibitory strength of the compounds of the present disclosure was analyzed as against platelet adhesion to type I collagen. Ninety-six well flat bottom microtiter plates (Immulon 2, Dynatech Laboratories, Chantilly, Va.) were coated with collagen, purified human fibrinogen, or bovine serum albumin, each dissolved in 50 mM NaHCO3 buffer, pH 8.0, containing 150 mM NaCl as previously described. See Bennett J S, Chan C, Vilaire G, Mousa S A, DeGrado W F. Agonist-Activated αvβ3 on Platelets and Lymphocytes Binds to the Matrix Protein Osteopontin. J Biol Chem. 272, 8137-814) (1997). Unoccupied protein binding sites on the wells were blocked with 5 mg/ml bovine serum albumin dissolved in the same buffer. Human platelets were isolated from blood anticoagulated with 0.1 volume 3.8% sodium citrate by gel-filtration using a 4 mM HEPES buffer, pH 7.4, containing 135 mM NaCl, 2.7 mM KCl, 5.6 mM glucose, 3.3 mM NaH2PO4, 0.35 mg/ml bovine serum albumin and various concentrations of CaCl2 or MgCl2 according to the experiment. One hundred μl aliquots of the gel-filtered platelet suspension containing 1-2×10^8 platelets were added to the protein-coated wells in the absence or presence of a platelet agonist. Following an incubation for 30 min at 37° C. without agitation, the plates were washed 4 times with the Tris-buffered NaCl, containing 2 mM MgCl2, pH 7.4, and the number of adherent platelets measured using the colorimetric assay reported by Bellavite P, Andrioli G, Guzzo P, et al. A colorimetric method for the measurement of platelet adhesion in microtiter plates. Anal Biochem. 216, 444-450 (1994). Briefly, 150 μl of a 0.1 M citrate buffer, pH 5.4, containing 5 mM p-nitrophenyl phosphate and 0.1% Triton X-100 was added to the wells after washing. After an incubation for 60 min at room temperature in the absence of ambient light, color was developed by the addition of 100 μl of 2N NaOH and, using EL800 Universal Microplate Reader (Bio-Tek Instruments, Inc., Winooski, Vt.), read in microtiter plate reader at 405 nm.
The potencies of the compounds of the present disclosure were determined by testing the ability of a range of concentrations of each compound to inhibit human platelet adhesion to soluble collagen under static conditions. Owing to the fact that soluble collagen is a specific ligand for α2β1 integrin, this is an accepted method of assessing α2β1 inhibition on platelets.
IC50 values were determined by using the platelets of a single donor. In cases where multiple assays were performed, the reported results reflect the average IC50 value derived from the separate assays.

α4β1 = target: T2, α4β1 (Homo sapiens, UniProt P05556+P13612); assay: Cell adhesion assay to assess specificity: Jurkat cells on VCAM
T2 construct: Jurkat cells expressing α4β1; Marcinkiewicz (Temple University, Philadelphia, Pa.); host or cells: Jurkat
T2 sequence (P13612 34-1032): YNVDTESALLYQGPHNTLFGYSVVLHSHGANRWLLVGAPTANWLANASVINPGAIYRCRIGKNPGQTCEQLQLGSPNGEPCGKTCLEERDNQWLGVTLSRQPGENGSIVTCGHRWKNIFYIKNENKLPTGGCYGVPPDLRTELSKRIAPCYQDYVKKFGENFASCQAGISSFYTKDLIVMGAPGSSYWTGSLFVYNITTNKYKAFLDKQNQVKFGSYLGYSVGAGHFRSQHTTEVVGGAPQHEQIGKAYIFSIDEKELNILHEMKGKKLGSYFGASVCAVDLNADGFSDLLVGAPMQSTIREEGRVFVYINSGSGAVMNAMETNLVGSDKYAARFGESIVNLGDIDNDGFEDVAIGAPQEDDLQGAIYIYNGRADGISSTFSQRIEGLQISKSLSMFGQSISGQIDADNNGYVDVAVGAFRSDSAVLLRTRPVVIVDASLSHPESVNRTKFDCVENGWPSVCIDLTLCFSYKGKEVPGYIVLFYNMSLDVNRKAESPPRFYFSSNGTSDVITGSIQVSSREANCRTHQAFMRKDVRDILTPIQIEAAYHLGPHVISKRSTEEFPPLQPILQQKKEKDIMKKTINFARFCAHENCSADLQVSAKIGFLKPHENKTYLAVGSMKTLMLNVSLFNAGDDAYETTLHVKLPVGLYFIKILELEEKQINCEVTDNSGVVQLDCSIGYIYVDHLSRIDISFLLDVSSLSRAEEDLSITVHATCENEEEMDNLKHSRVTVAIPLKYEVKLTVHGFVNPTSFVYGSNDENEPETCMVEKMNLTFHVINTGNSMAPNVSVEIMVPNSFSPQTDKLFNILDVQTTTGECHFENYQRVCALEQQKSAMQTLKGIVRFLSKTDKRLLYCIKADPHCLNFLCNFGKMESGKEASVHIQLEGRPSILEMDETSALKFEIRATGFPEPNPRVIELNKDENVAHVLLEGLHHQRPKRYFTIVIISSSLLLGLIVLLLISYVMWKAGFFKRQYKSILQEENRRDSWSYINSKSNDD
T2 sequence (P05556 21-798): as the sequence (P05556 21-798) above
Protocol: (§1) The ligands (3 μg/ml of collagen IV for […] or 3 μg/ml of collagen I for α2β1) for the test designed to assess the specificity of representative embodiments of the instant compounds for the α2β1 integrin were immobilized on 96-well flat microtiter plates (100 μl for each well) in PBS buffer solution overnight at 4° C. In the case of VCAM (3 μg/ml, for α4β1) and fibronectin (10 μg/ml, for α5β1), 20 mM acetic acid was used instead of PBS buffer solution. As those skilled in the art will recognize, VCAM is a known endothelial ligand for α4β1/VLA-4, and fibronectin is a known ligand for […]. In the case of α1β1 and α2β1, blocking was performed with 1% BSA in HBSS buffer solution containing Mg^2+ (but without Ca^2+) for 1 hour. In the case of α4β1 and α5β1, 1% BSA in HyQ HBSS buffer solution containing Ca^2+ and Mg^2+ was used. […] After centrifugation and washing with buffer solution containing 1% BSA, cells were re-suspended in same buffer solution (1×10^6 cells/ml) and incubated in the presence of a different concentration of inhibitors at room temperature for 15 minutes. Cells were added to the wells (100 μl/well) and incubated at 37° C. for 30 minutes. Unbound cells were washed out and bound cells were lysed by the addition of 0.5% Triton X-100.
(§2) The K562 cells expressing α5β1 integrin, Jurkat cells expressing α4β1, and K562 cells transfected with α1 and α2 integrins were provided by Dr. C. Marcinkiewicz (Temple University, Philadelphia, Pa.).
(§3) Plates were read using a Cytofluor 2350 fluorescence plate reader (Millipore, Bedford, Mass.) with a 485 nm (excitation) and 530 nm (emission).

α1β1 = target: T3, α1β1 (Homo sapiens, UniProt P05556+P56199); assay: Cell adhesion assay to assess specificity: α1-transfected K562 cells on collagen IV; settings: read-out: % inhibition at 3 μM, α1β1
T3 construct: Marcinkiewicz (Temple University, Philadelphia, Pa.); host or cells: K562
T3 sequence (P56199 29-1179): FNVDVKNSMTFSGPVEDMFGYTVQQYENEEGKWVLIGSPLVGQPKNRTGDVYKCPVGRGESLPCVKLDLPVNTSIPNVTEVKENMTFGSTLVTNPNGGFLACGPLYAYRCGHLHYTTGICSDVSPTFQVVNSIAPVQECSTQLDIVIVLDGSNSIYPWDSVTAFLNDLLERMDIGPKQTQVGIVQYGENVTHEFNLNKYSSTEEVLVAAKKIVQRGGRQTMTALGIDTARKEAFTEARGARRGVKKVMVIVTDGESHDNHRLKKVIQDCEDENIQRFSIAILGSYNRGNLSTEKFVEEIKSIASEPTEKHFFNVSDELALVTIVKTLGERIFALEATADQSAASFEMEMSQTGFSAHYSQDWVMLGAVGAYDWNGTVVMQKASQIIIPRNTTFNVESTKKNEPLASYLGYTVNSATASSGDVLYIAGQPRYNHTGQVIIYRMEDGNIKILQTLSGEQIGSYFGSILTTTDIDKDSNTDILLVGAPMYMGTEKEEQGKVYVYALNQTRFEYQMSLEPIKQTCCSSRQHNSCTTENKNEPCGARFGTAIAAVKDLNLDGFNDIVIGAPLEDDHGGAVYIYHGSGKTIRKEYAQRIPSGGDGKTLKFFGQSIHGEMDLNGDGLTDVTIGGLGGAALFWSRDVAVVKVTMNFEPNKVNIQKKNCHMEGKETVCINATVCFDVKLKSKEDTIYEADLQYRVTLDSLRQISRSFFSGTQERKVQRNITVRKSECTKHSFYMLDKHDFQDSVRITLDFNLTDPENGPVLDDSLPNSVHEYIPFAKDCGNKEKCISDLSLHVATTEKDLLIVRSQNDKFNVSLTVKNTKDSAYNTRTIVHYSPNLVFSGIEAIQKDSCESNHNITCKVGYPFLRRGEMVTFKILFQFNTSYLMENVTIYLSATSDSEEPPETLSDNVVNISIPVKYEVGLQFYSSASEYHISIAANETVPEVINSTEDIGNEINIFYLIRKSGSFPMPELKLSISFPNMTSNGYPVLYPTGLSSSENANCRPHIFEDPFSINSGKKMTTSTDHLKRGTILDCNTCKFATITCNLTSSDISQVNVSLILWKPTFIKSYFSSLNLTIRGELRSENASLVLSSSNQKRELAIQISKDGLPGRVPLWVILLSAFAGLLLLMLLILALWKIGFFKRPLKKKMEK
T3 sequence (P05556 21-798): as the sequence (P05556 21-798) above
Protocol: as §1, §2, §3

α2β1 = target: T4, α2β1 (Homo sapiens, UniProt P05556+P17301); assay: Cell adhesion assay to assess specificity: α2-transfected K562 cells on collagen I
T4 construct: Marcinkiewicz (Temple University, Philadelphia, Pa.); host or cells: K562
T4 sequence (P17301 30-1181): as the sequence (P17301 30-1181) above
T4 sequence (P05556 21-798): as the sequence (P05556 21-798) above
Protocol: as §1, §2, §3

[1] = human platelet adhesion to type I (soluble, monomeric) collagen, static conditions, single donor, read-out: IC50
[2] = platelets on collagen I, read-out: IC50 (nM), α2β1, Platelet, Collagen I

| IC50 (α2β1 integrin; [1]) [nM] | IC50 (α2β1 integrin; [2]) [nM] | IC50 (α4β1) [nM] | inhibition at 3 µM (α1β1) [%] | IC50 (α2β1) [nM] | SMILES |
| --- | --- | --- | --- | --- | --- |
| 29 | 29 | 740 | 26 | 89 | Cc1cc(C)cc(S(=O)(=O)N2CCC[C@H]2C(=O)N[C@@H](CNC(=O)NCc2ccccc2)C(=O)O)c1 [Compound 31, 3-(3-Benzyl-ureido)-2-{[1-(3,5-dimethyl-benzenesulfonyl)-pyrrolidine-2-carbonyl]-amino}-propionic acid] |
| 17 | 17 | 637 | 32 | 83 | O=C(NCc1ccccc1)NC[C@H](NC(=O)[C@@H]1CCCN1S(=O)(=O)c1cc(Cl)cc(Cl)c1)C(=O)O [Compound 48, 3-(3-Benzyl-ureido)-2-{[1-(3,5-dichloro-benzenesulfonyl)-pyrrolidine-2-carbonyl]-amino}-propionic acid] |
